Entries after “also recorded” stand apart in the source; their conditions may differ.
Experiments:
Assay type in all cases: cell-based, human
LDHA = assay: HIF-1 induced gene expression, U251 cells (Table 3), LDHA; conditions: HREs ggcgGACGTGcggg, ctcaCACGTGggtt, E 100 nM
Procedure: (§1) U251 cells were plated in 24-well plates at a density of 20−30×10^3 cells per well (40−60×10^3 cells/ml) in RPMI (ATCC) supplemented with 5% FBS (Irvine Scientific). After 24 hours, polyamides were added to the adhered cells in cell media solutions at the appropriate concentration and incubated with the cells for 48 hours. […] When appropriate, echinomycin was added two hours prior to DFO stimulation. Isolation of RNA and subsequent cDNA synthesis were as previously described (19). When appropriate, HIF-1α siRNA (HIF-1α validated stealth duplex, Invitrogen) or mismatch control siRNA with similar GC content (Invitrogen) was transfected 48 hours prior to RNA isolation. Transfection of siRNA was achieved using Lipofectamine 2000 (Invitrogen) according to manufacturer's protocols. Quantitative real-time RT-PCR was performed using SYBR Green PCR Master Mix (Applied Biosystems) on an ABI 7300 instrument. Target gene mRNA was measured relative to β-glucuronidase as an endogenous control. Primer employed were: VEGF, L 5′[…]-3′ (SEQ ID NO:22), R 5′-GGGTACTCC TGGAAGATGTCC-3′ (SEQ ID NO:23); β-glucuronidase, L 5′-[…]-3′ (SEQ ID NO:24), R 5′-[…]-3′ (SEQ ID NO:25); FLT1, L 5′-[…]-3′ (SEQ ID NO:26), R 5′-[…]-3′ (SEQ ID NO:27).

BNIP3 = assay: HIF-1 induced gene expression, U251 cells (Table 3), BNIP3; conditions: HRE gccgCACGTGccac, E 100 nM
Procedure: as §1

VEGF mRNA = assay: DFO-induced VEGF mRNA by quantitative real-time RT-PCR, U251 cells; conditions: for HIF-1 induced genes affected: VEGF: HRE tgcaTACGTGggct, E 100 nM, 11.1 and 11.3 1 μM, U251; for Effect on DFO-induced VEGF mRNA (in words) / Effect on induced VEGF expression (in words) / Induction of VEGF mRNA by DFO (in words), FIG. 15a legend: U251 cells; for Effect on DFO-induced VEGF mRNA (in words): 0.2 and 1 μM; for Effect on induced VEGF expression (in words): Example 2, polyamides 1 μM, echinomycin 100 nM; for Induction of VEGF mRNA by DFO (in words), FIG. 15a legend: echinomycin (100 nM), polyamides (10 μM)
Procedure: Cells were plated in 24-well plates at a density of 15-20×10^3 cells per well (30-40×10^3 cells/ml). Polyamides were added to adhered cells in solutions of cell media at the appropriate concentration and allowed to incubate with the cells for 48 h. […] Cells were harvested, RNA isolated, cDNA synthesized and quantitative real-time RT-PCR conducted as described previously (16). Briefly, RNA was isolated using the RNeasy kit (Qiagen), cDNA synthesized using Powerscript (BD Biosciences) and quantitative real-time RT-PCR performed using SYBR Green PCR Master Mix (Applied Biosystems) on an ABI 7300 instrument. VEGF expression was measured relative to β-glucuronidase (GUSB) as an endogenous control. Statistical analyses of results were determined using three independent biological replicates. The primer sequences used for VEGF and GUSB are available upon request. HeLa cells were purchased from ATCC and U251 cells were received as a gift from Dr Giovanni Melillo of the National Cancer Institute.
as §1

EGLN3 = assay: HIF-1 induced gene expression, U251 cells (Table 3), EGLN3; conditions: HRE gggcTACGTGcaga, E 100 nM
Procedure: as §1

[1] = system: HIF-1 occupancy at the PGK1 HRE; assay: Chromatin immunoprecipitation of HIF-1α, U251 cells, PGK1 HRE; conditions: DFO-induced, polyamides 1 μM, echinomycin 100 nM
Procedure: (§2) U251 cells were plated in 15 cm diameter plates and left to attach overnight. Media, time course, DFO, polyamide, echinomycin, and siRNA treatments were as described above. After the 16 hour DFO treatment, cells were treated with 1% formaldehyde for 10 minutes. Chromatin was isolated and sheared. HIF-1α antibodies (Novus Biologicals) were used to immunoprecipitate HIF-1-bound DNA fragments. After crosslink reversal, PCRs using primers targeted to the regions of interest were used to assess enrichment of bound fragments as compared to mock-precipitated (no antibody) controls. PCRs were monitored either using SYBR Green PCR Master Mix (Applied Biosystems) on an ABI 7300 instrument, or directly visualized using gel electrophoresis. The following primers were used: VEGF, L 5′-CCTTTGGGTTTTGCCAGA-3′ (SEQ ID NO:28), R 5′-CCAAGTTTGTGGAGCTGA-3′ (SEQ ID NO:29); CA9, L 5′-AAAAGGGCGCTCTGTGAGT-3′ (SEQ ID NO:30), R 5′-GCTGACTGTGGGGTGTCC-3′ (SEQ ID NO:31); PGK1, L 5′-CCCCTAAGTCGGGAAGGTT-3′ (SEQ ID NO:32), R 5′-[…]-3′ (SEQ ID NO:33).

11 HIF-1 induced genes = assay: Quantitative real-time RT-PCR confirmation on the set of 11 HIF-1 induced genes, U251 cells; conditions: E 100 nM, polyamides 1 μM
Text: Quantitative real-time RT-PCR was used to confirm the effects of polyamides 11.1, 11.3, echinomycin, and siRNA treatments on these 11 genes. […] Chromatin immunoprecipitation was used to measure HIF-1 occupancy at the HREs of VEGF and carbonic anhydrase IX (CA9), which were both affected by polyamide 11.1, and PGK1, which was unaffected (FIG. 17). HIF-1α occupancy at the VEGF HRE was decreased by HIF-1α siRNA, echinomycin, and polyamide 11.1, but less so by treatment with HRE-mismatch polyamide 11.3.
as §1

FLT1 mRNA = assay: DFO-induced FLT1 mRNA by quantitative real-time RT-PCR, U251 cells; conditions: for HIF-1 induced genes affected: FLT1: HRE gaacAACGTGgaat, E 100 nM, 11.1 and 11.3 1 μM, U251; for Effect on DFO-induced FLT1 mRNA (in words): U251 cells, polyamides 1 μM, echinomycin 100 nM
Procedure: as §1

EGLN1 = assay: HIF-1 induced gene expression, U251 cells (Table 3), EGLN1; conditions: HRE ggtgTACGTGcaga, E 100 nM
Procedure: as §1

EDN1 = assay: HIF-1 induced gene expression, U251 cells (Table 3), EDN1; conditions: HRE aggcAACGTGcagc; E 100 nM, 11.1 and 11.3 1 μM
Procedure: as §1

PGK1 = assay: HIF-1 induced gene expression, U251 cells (Table 3), PGK1; conditions: HREs gtgaGACGTGcggc, tgccGACGTGcgct, E 100 nM
Procedure: as §1

[2] = system: HIF-1 occupancy at the carbonic anhydrase IX (CA9) HRE; assay: Chromatin immunoprecipitation of HIF-1α, U251 cells, CA9 HRE; conditions: DFO-induced, polyamides 1 μM, echinomycin 100 nM
Procedure: as §2

PKFB3 = assay: HIF-1 induced gene expression, U251 cells (Table 3), PKFB3; conditions: HREs gcggGACGTGacgc, gacgCACGTGggca; E 100 nM, 11.1 and 11.3 1 μM
Procedure: as §1

| SMILES | HIF-1 induced genes affected: LDHA (LDHA; 11.1 and 11.3 1 μM) | HIF-1 induced genes affected: BNIP3 (BNIP3; 11.1 and 11.3 1 μM) | HIF-1 induced genes affected: VEGF (VEGF mRNA) | Effect on DFO-induced VEGF mRNA (in words) (VEGF mRNA) | Induction of VEGF mRNA by DFO (in words), FIG. 15a legend (VEGF mRNA) | HIF-1 induced genes affected: EGLN3 (EGLN3; 11.1 and 11.3 1 μM) | HIF-1 occupancy at PGK1 (chromatin immunoprecipitation) [1] | Genes of the set of 11 HIF-1 induced genes affected (quantitative real-time RT-PCR) (11 HIF-1 induced genes) | HIF-1 induced genes affected: FLT1 (FLT1 mRNA) | HIF-1 induced genes affected: EGLN1 (EGLN1; 11.1 and 11.3 1 μM) | HIF-1 induced genes affected: EDN1 (EDN1) | HIF-1 induced genes affected: PGK1 (PGK1; 11.1 and 11.3 1 μM) | HIF-1 occupancy at the carbonic anhydrase IX locus (chromatin immunoprecipitation) [2] | HIF-1 induced genes affected: PKFB3 (PKFB3) | Effect on induced VEGF expression (in words) (VEGF mRNA) | other results |
| --- | --- | --- | --- | --- | --- | --- | --- | --- | --- | --- | --- | --- | --- | --- | --- | --- |
| CN(CCCNC(=O)c1cccc(C(=O)O)c1)CCCNC(=O)c1cc(NC(=O)c2cc(NC(=O)c3cc(NC(=O)c4nc(NC(=O)[C@H](N)CCNC(=O)c5cc(NC(=O)c6cc(NC(=O)c7nc(NC(=O)c8nccn8C)cn7C)cn6C)cn5C)cn4C)cn3C)cn2C)cn1C [Polyamide 23] | 1.1 | 1.0 | -1.3 | more modest effect than its match congener 11; also recorded: modest activity at both concentrations | more modest effect | −1.1 | minimally affected | little effect on the expression of all the others | -1.1 | 1.0 | 1.3 | 1.0 | unaffected | 1.0 | – | Effect on induced VEGF expression (in words) (VEGF mRNA; listed as 11.3): more modest effect on VEGF mRNA levels; also recorded: modest but measurable effect on VEGF expression; Effect on DFO-induced FLT1 mRNA (in words) (FLT1 mRNA; listed as 11.3): minimal effect; also recorded: minimal or no effect |
| CS[C@H]1SC[C@H]2C(=O)N(C)[C@@H](C(C)C)C(=O)OC[C@@H](NC(=O)c3cnc4ccccc4n3)C(=O)N[C@@H](C)C(=O)N(C)[C@@H]1C(=O)N(C)[C@@H](C(C)C)C(=O)OC[C@@H](NC(=O)c1cnc3ccccc3n1)C(=O)N[C@@H](C)C(=O)N2C [echinomycin, reference compound] | – | – | -34.0 | – | potently inhibits VEGF mRNA to below non-induced levels | – | did not appear to affect HIF-1 occupancy at this locus | reduced expression of all genes in this set | -4.7 | – | -31.0 | – | decreased | −82.0 | potently inhibits VEGF expression to levels below the non-induced control | HIF-1 induced genes affected: LDHA (LDHA): −4.4; HIF-1 induced genes affected: BNIP3 (BNIP3): −6.0; HIF-1 induced genes affected: EGLN3 (EGLN3): −33.6; Effect on DFO-induced FLT1 mRNA (in words) (FLT1 mRNA): decrease FLT1 mRNA levels; Effect on DFO-induced FLT1 mRNA (in words) (FLT1 mRNA; listed as Echinomycin): reduced FLT1 expression to below that of the non-induced control; HIF-1 induced genes affected: EGLN1 (EGLN1): −19.8; HIF-1 induced genes affected: PGK1 (PGK1): -3.3 |
| CN(CCCNC(=O)c1cccc(C(=O)O)c1)CCCNC(=O)c1cc(NC(=O)c2cc(NC(=O)c3nc(NC(=O)c4cc(NC(=O)[C@H](N)CCNC(=O)c5nc(NC(=O)c6cc(NC(=O)c7cc(NC(=O)c8sccc8Cl)cn7C)cn6C)cn5C)cn4C)cn3C)cn2C)cn1C [Polyamide 11] | 1.3 | 1.3 | -2.0 | inhibited dose dependently; also recorded: dose-dependent inhibition of VEGF | decrease VEGF mRNA levels to near non-induced levels | 1.0 | minimally affected | 4 | -2.0 | 1.1 | -2.5 | -1.2 | decreased | 1.0 | inhibited most of the increase in VEGF mRNA following DFO treatment | Effect on DFO-induced FLT1 mRNA (in words) (FLT1 mRNA; listed as 11.1): inhibited FLT1 expression; also recorded: decrease FLT1 mRNA levels |

— patent US7935530B2, “Polyamides with tail structures capable of binding DNA” (California Institute of Technology, priority 2006, dated 2011)
